From patent US10155768B2, “Fused pyrimidine compound or salt thereof” (TAIHO PHARMACEUTICAL CO., LTD., priority 2016, dated 2018)

Test: Evaluation of stability in liver microsome
Settings: for Remaining (%): mouse liver microsome 0.25 mg/mL, 1 μM test compound, 37° C. for 30 minutes
Experimental: Solutions of the test compounds in DMSO/acetonitrile (the final concentration of each test compound was 1 μM, the final concentration of DMSO was 0.01%, and the final concentration of acetonitrile was 1%) were individually added to a liver microsome mixture solution (mouse liver microsome with a final concentration of 0.25 mg/mL, a potassium phosphate buffer with a final concentration of 100 mM, and magnesium chloride with a final concentration of 3 mM), and each mixture was pre-incubated at 37° C. for 5 minutes. […] After incubation at 37° C. for 30 minutes, a double amount of ethanol was added thereto to terminate the reaction, thereby obtaining post-reaction samples. A double amount of ethanol was added to each of the remaining mixture solutions, and a NADPH-generating system was further added thereto, thereby obtaining pre-reaction samples. The pre-reaction samples and post-reaction samples were centrifuged at 2000×g, and their supernatant was filtered through a glass filter. Each filtrate was then introduced into LC-MS/MS, and MS/MS peaks of the test compounds were detected. From the ratio of the post-reaction MS/MS peak to the pre-reaction MS/MS peak of the test compounds, the percentage of the remaining test compounds (remaining %) was calculated.

Nc1ncnc2c1c(C(=O)Nc1ccc(Oc3ccccc3)cc1)cn2C1CCCC1 [Compound 2 of Comparative Examples, 4-amino-7-cyclopentyl-N-(4-phenoxyphenyl)-7H-pyrrolo[2,3-d]pyrimidine-5-carboxamide, reference compound]
Remaining (%): 0%
percentage of the remaining test compounds (remaining %) (mouse liver microsome, 1 μM, 37° C., 30 minutes): 0%

COCc1ccc(NC(=O)c2cn(C(C)(C)C)c3ncnc(N)c23)cc1 [Example 2, 4-amino-7-(tert-butyl)-N-(4-(methoxymethyl)phenyl)-7H-pyrrolo[2,3-d]pyrimidine-5-carboxamide]
Remaining (%): 64%

COCc1ccc(NC(=O)c2cn(C(C)(C)CF)c3ncnc(N)c23)cc1 [Example 26, 4-amino-7-(1-fluoro-2-methylpropan-2-yl)-N-(4-(methoxymethyl)phenyl)-7H-pyrrolo[2,3-d]pyrimidine-5-carboxamide]
Remaining (%): 60%

COCc1ccc(NC(=O)c2cn(C(C)(C)C)c3ncnc(N)c23)cc1F [Example 30, 4-amino-7-(tert-butyl)-N-(3-fluoro-4-(methoxymethyl)phenyl)-7H-pyrrolo[2,3-d]pyrimidine-5-carboxamide]
Remaining (%): 54%

COCc1ccc(NC(=O)c2cn(C(C)(C)C)c3ncnc(N)c23)c(OC)c1 [Example 33, 4-amino-7-(tert-butyl)-N-(2-methoxy-4-(methoxymethyl)phenyl)-7H-pyrrolo[2,3-d]pyrimidine-5-carboxamide]
Remaining (%): 57%

[2H]C([2H])([2H])OCc1ccc(NC(=O)c2cn(C(C)(C)C)c3ncnc(N)c23)cc1 [Example 35, 4-amino-7-(tert-butyl)-N-(4-((methoxy-d3)-methyl)phenyl)-7H-pyrrolo[2,3-d]pyrimidine-5-carboxamide]
Remaining (%): 58%

COCc1ccc(NC(=O)c2cn(C3(C)CC3)c3ncnc(N)c23)cc1 [Example 36, 4-amino-N-(4-(methoxymethyl)phenyl)-7-(1-methylcyclopropyl)-7H-pyrrolo[2,3-d]pyrimidine-5-carboxamide]
Remaining (%): 73%

COCc1ccc(NC(=O)c2cn(C(C)(C)CF)c3ncnc(N)c23)cc1F [Example 41, 4-amino-7-(1-fluoro-2-methylpropan-2-yl)-N-(3-fluoro-4-(methoxymethyl)phenyl)-7H-pyrrolo[2,3-d]pyrimidine-5-carboxamide]
Remaining (%): 56%

COCc1ccc(NC(=O)c2cn(C3(CF)CC3)c3ncnc(N)c23)cc1 [Example 45, 4-amino-7-(1-(fluoromethyl)cyclopropyl)-N-(4-(methoxymethyl)phenyl)-7H-pyrrolo[2,3-d]pyrimidine-5-carboxamide]
Remaining (%): 66%

COCc1ccc(NC(=O)c2cn(C3(C(F)F)CC3)c3ncnc(N)c23)cc1 [Example 46, 4-amino-7-(1-(difluoromethyl)cyclopropyl)-N-(4-(methoxymethyl)phenyl)-7H-pyrrolo[2,3-d]pyrimidine-5-carboxamide]
Remaining (%): 65%

COCc1ccc(NC(=O)c2cn(C3(C)CC3)c3ncnc(N)c23)cc1F [Example 48, 4-amino-N-(3-fluoro-4-(methoxymethyl)phenyl)-7-(1-methylcyclopropyl)-7H-pyrrolo[2,3-d]pyrimidine-5-carboxamide]
Remaining (%): 58%

COCc1ccc(NC(=O)c2cn(C3(C4CC4)CC3)c3ncnc(N)c23)cc1 [Example 49, 7-{[1,1-bi(cyclopropane)]-1-yl}-4-amino-N-(4-(methoxymethyl)phenyl)-7H-pyrrolo[2,3-d]pyrimidine-5-carboxamide]
Remaining (%): 67%

COCc1ccc(NC(=O)c2cn(C(C)(C)C(F)F)c3ncnc(N)c23)cc1 [Example 50, 4-amino-7-(1,1-difluoro-2-methylpropan-2-yl)-N-(4-(methoxymethyl)phenyl)-7H-pyrrolo[2,3-d]pyrimidine-5-carboxamide]
Remaining (%): 53%

COCc1ccc(NC(=O)c2c(Br)n(C3(C)CC3)c3ncnc(N)c23)cc1 [Example 55, 4-amino-6-bromo-N-[4-(methoxymethyl)phenyl]-7-(1-methylcyclopropyl)-7H-pyrrolo[2,3-d]pyrimidine-5-carboxamide]
Remaining (%): 56%

COCc1ccc(NC(=O)c2c(Cl)n(C3(C)CC3)c3ncnc(N)c23)cc1 [Example 56, 4-amino-6-chloro-N-[4-(methoxymethyl)phenyl]-7-(1-methylcyclopropyl)-7H-pyrrolo[2,3-d]pyrimidine-5-carboxamide]
Remaining (%): 62%

COCc1ccc(NC(=O)c2c(OC)n(C3(C)CC3)c3ncnc(N)c23)cc1 [Example 57, 4-amino-6-methoxy-N-[4-(methoxymethyl)phenyl]-7-(1-methylcyclopropyl)-7H-pyrrolo[2,3-d]pyrimidine-5-carboxamide]
Remaining (%): 86%

COCc1ccc(NC(=O)c2c(C)n(C(C)(C)C)c3ncnc(N)c23)cc1 [Example 60, 4-amino-7-(tert-butyl)-N-(4-(methoxymethyl)phenyl)-6-methyl-7H-pyrrolo[2,3-d]pyrimidine-5-carboxamide]
Remaining (%): 81%

COCc1ccc(NC(=O)c2c(-c3cccnc3)n(C3(C)CC3)c3ncnc(N)c23)cc1 [Example 61, 4-amino-N-(4-(methoxymethyl)phenyl)-7-(1-methylcyclopropyl)-6-(pyridin-3-yl)-7H-pyrrolo[2,3-d]pyrimidine-5-carboxamide]
Remaining (%): 81%

COCc1ccc(NC(=O)c2c(C(C)=O)n(C3(C)CC3)c3ncnc(N)c23)cc1 [Example 64, 6-acetyl-4-amino-N-(4-(methoxymethyl)phenyl)-7-(1-methylcyclopropyl)-7H-pyrrolo[2,3-d]pyrimidine-5-carboxamide]
Remaining (%): 89%

C=Cc1c(C(=O)Nc2ccc(COC)cc2)c2c(N)ncnc2n1C1(C)CC1 [Example 65, 4-amino-N-(4-(methoxymethyl)phenyl)-7-(1-methylcyclopropyl)-6-vinyl-7H-pyrrolo[2,3-d]pyrimidine-5-carboxamide]
Remaining (%): 79%

COCc1ccc(NC(=O)c2c(F)n(C3(C)CC3)c3ncnc(N)c23)cc1 [Example 69, 4-amino-6-fluoro-N-(4-(methoxymethyl)phenyl)-7-(1-methylcyclopropyl)-7H-pyrrolo[2,3-d]pyrimidine-5-carboxamide]
Remaining (%): 69%

CC(C)(C)n1cc(C(=O)Nc2ccc(-c3cc[nH]n3)cc2)c2c(N)ncnc21 [Example 80, N-(4-(1H-pyrazol-3-yl)phenyl)-4-amino-7-(tert-butyl)-7H-pyrrolo[2,3-d]pyrimidine-5-carboxamide]
Remaining (%): 50%

COCc1ccc(NC(=O)c2c(C#CCC(C)(C)O)n(C3(C)CC3)c3ncnc(N)c23)cc1 [Example 86, 4-amino-6-(4-hydroxy-4-methylpent-1-yn-1-yl)-N-[4-(methoxymethyl)phenyl]-7-(1-methylcyclopropyl)-7H-pyrrolo[2,3-d]pyrimidine-5-carboxamide]
Remaining (%): 66%

COCc1ccc(NC(=O)c2c(C#CC3CCOCC3)n(C3(C)CC3)c3ncnc(N)c23)cc1 [Example 87, 4-amino-N-[4-(methoxymethyl)phenyl]-7-(1-methylcyclopropyl)-6-((tetrahydro-2H-pyran-4-yl)ethynyl)-7H-pyrrolo[2,3-d]pyrimidine-5-carboxamide]
Remaining (%): 63%

COCc1ccc(NC(=O)c2c(C#CCN3CCCC3)n(C3(C)CC3)c3ncnc(N)c23)cc1 [Example 88, 4-amino-N-[4-(methoxymethyl)phenyl]-7-(1-methylcyclopropyl)-6-(3-(pyrrolidin-1-yl)prop-1-yn-1-yl)-7H-pyrrolo[2,3-d]pyrimidine-5-carboxamide]
Remaining (%): 59%

COCc1ccc(NC(=O)c2c(OC[C@H]3CCCO3)n(C3(C)CC3)c3ncnc(N)c23)cc1 [Example 89, (R)-4-amino-N-[4-(methoxymethyl)phenyl]-7-(1-methylcyclopropyl)-6-((tetrahydrofuran-2-yl)methoxy)-7H-pyrrolo[2,3-d]pyrimidine-5-carboxamide]
Remaining (%): 69%

COCc1ccc(NC(=O)c2c(C#Cc3cnn(C)c3)n(C3(C)CC3)c3ncnc(N)c23)cc1 [Example 90, 4-amino-N-[4-(methoxymethyl)phenyl]-6-((1-methyl-1H-pyrazol-4-yl)ethynyl)-7-(1-methylcyclopropyl)-7H-pyrrolo[2,3-d]pyrimidine-5-carboxamide]
Remaining (%): 67%

COCc1ccc(NC(=O)c2c(C#Cc3cnc4cccnn34)n(C3(C)CC3)c3ncnc(N)c23)cc1 [Example 91, 4-amino-6-(imidazo[1,2-b]pyridazin-3-ylethynyl)-N-[4-(methoxymethyl)phenyl]-7-(1-methylcyclopropyl)-7H-pyrrolo[2,3-d]pyrimidine-5-carboxamide]
Remaining (%): 65%

COCc1ccc(NC(=O)c2c(C#Cc3ccn(C)n3)n(C3(C)CC3)c3ncnc(N)c23)cc1 [Example 92, 4-amino-N-(4-(methoxymethyl)phenyl)-6-((1-methyl-1H-pyrazol-3-yl)ethynyl)-7-(1-methylcyclopropyl)-7H-pyrrolo[2,3-d]pyrimidine-5-carboxamide]
Remaining (%): 67%

COCc1ccc(NC(=O)c2c(C#Cc3cncn3C)n(C3(C)CC3)c3ncnc(N)c23)cc1 [Example 93, 4-amino-N-(4-(methoxymethyl)phenyl)-6-((1-methyl-1H-imidazol-5-yl)ethynyl)-7-(1-methylcyclopropyl)-7H-pyrrolo[2,3-d]pyrimidine-5-carboxamide]
Remaining (%): 53%

COCc1ccc(NC(=O)c2c(C#Cc3cccnc3)n(C3(C)CC3)c3ncnc(N)c23)cc1 [Example 94, 4-amino-N-[4-(methoxymethyl)phenyl]-7-(1-methylcyclopropyl)-6-(pyridin-3-ylethynyl)-7H-pyrrolo[2,3-d]pyrimidine-5-carboxamide]
Remaining (%): 60%

COCc1ccc(NC(=O)c2c(OC[C@@H](C)OC)n(C3(C)CC3)c3ncnc(N)c23)cc1 [Example 96, (R)-4-amino-N-(4-(methoxymethyl)phenyl)-6-(2-methoxypropoxy)-7-(1-methylcyclopropyl)-7H-pyrrolo[2,3-d]pyrimidine-5-carboxamide]
Remaining (%): 71%
